The text below walks through data of article PMC5587768, “Ligand activation induces different conformational changes in CXCR3 receptor isoforms as evidenced by plasmon waveguide resonance (PWR)” (Scientific Reports, 2017).

Molecules are shown by their SMILES. Several values for one entry are separate records, joined by “and”; a condition that tells them apart may be missing. Equal entries are not always repeated.

Test [1] has as its target T1, CXCR3-A (Homo sapiens, UniProt P49682).
T1 construct: The coding regions of human CXCR3-A or CXCR3-B cDNA; expressed in transfected cells; host or cells: HEK-293, stably transfected (HEK-CXCR3-A)
T1 sequence (P49682 1-368): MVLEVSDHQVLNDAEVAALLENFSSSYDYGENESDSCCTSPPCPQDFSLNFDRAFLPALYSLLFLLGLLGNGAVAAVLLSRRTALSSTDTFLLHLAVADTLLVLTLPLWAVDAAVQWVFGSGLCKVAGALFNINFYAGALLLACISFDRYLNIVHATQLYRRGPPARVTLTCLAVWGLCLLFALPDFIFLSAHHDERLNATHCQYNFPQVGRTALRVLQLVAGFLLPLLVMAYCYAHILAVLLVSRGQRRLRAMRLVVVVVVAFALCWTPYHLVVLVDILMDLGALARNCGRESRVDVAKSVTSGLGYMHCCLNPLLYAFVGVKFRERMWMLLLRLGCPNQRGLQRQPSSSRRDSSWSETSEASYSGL
Kind of test: Plasmon waveguide resonance (PWR) on HEK-CXCR3-A cell membrane fragments. In kind it is binding. Particulars: for Kd: HEK-CXCR3-A cell fragments, incremental ligand addition, hyperbolic fit; for Difference in KD between CXCR3-A and CXCR3-B (higher affinity for CXCR3-A): KD CXCR3-B versus KD CXCR3-A. From the text:
(§1) Ligand-mediated activation of CXCR3 was studied by PWR and flow cytometry measuring calcium flux. The former technique allows to determine the affinity, ligand-binding kinetics and anisotropy of the events occurring at the sensor surface. This technique gives the possibility of following resonance with two types of polarizations, p- and s-polarizations. PWR can be applied both to artificial lipid model systems with reconstituted receptors or to cell fragments[27]–[34]. In the present study, cell membrane fragments from cells expressing the CXCR3-A and CXCR3-B receptors were immobilized on the PWR sensor which is composed of a prism coated with a silver layer and overcoated with a silica layer. The prism is pre-treated with polylysine to promote cell adhesion by electrostatic interactions between the negative charges provided by the cell surface glycosaminoglycans (GAGs) and the positive charges of polylysine. The quality of HEK-CTRL, HEK-CXCR3-A and HEK-CXCR3-B membrane fragments was verified by confocal microscopy by visualizing the GFP-tagged receptors using glass slides of the same material (silica) than the outer layer of the sensor surface (Fig. 1A). The presence of fluorescent membrane fragments on the glass slide of few μm were evidenced in agreement with reported literature.
(§2) In contrast, membrane fragments of cells expressing either CXCR3-A or CXCR3-B responded to ligand stimulation in a saturable manner (Fig. 2; Fig. S3). […] PWR is sensitive to both, mass and structural changes. Inasmuch as the ligand is far too small to contribute to a mass change by itself, the PWR spectral changes observed correspond to ligand-induced receptor conformational changes (upon formation of the R/L complex). From the saturable and hyperbolic binding response, a dissociation constant was determined. The cell fragments are quite stable after sensor immobilization as no alterations in the spectra were observed after repetitive and extensive washing with buffer. Furthermore, lipids and receptors are oriented with their long axis along the p-polarization axis as shown by the anisotropic response. Thus, spectral modifications observed in p-polarization reflect changes along the receptor main axis, while modifications in s-polarization reflect changes along the receptor minor axis (Fig. S2). In HEK-CXCR3-A cells, agonist binding led to an increase in the resonance minimum position for both p- and s-polarization. A positive shift in the resonance angle is correlated with an increase in the refractive index due to a mass increase in the system. Since the ligand, by itself, is too small to be able to produce such spectral changes, the response can only be attributed to conformational change in the receptor which is reflected by an increase in mass density. […] The negative shift, while of considerably smaller magnitude, results from a slight decrease in the mass density in the system and can be attributed to a conformational change leading to a looser and less ordered arrangement of the TM helices accompanied by a slight decrease in length. Thus, agonist-mediated CXCR3 activation leads to opposite conformational changes depending on the CXCR3 isoform.
(§3) PWR measurements were performed in a homemade instrument equiped with a He-Ne laser, with a fixed wavelenght in the visible region (λ = 632 nm; Melles Griot), a rotating table allowing the incident angle to be changed by steps ≤1 mdeg (thus resolution being on that order; Newport) and a photodiode detector (Hamamatsu) to measure the reflected light as a function of the incident angle. The polarization angle of the incident beam is placed at 45° allowing both p- and s-polarized spectra to be obtained within the same angular scan. The sensor consisted in a BK-7 prism coated with silver and silica (to support waveguide modes)[36]. All measurements were performed at 22 °C in a temperature controlled room. More details about this technology can be found. […]

The subject of test [2] is CXCR3. Particulars: cited from earlier work.
In test [3] the target is T2, CXCR3-B (Homo sapiens, UniProt P49682).
T2 construct: The coding regions of human CXCR3-A or CXCR3-B cDNA; expressed in transfected cells; host or cells: HEK-293, stably transfected (HEK-CXCR3-B)
T2 sequence (P49682 1-415 isoform P49682-2): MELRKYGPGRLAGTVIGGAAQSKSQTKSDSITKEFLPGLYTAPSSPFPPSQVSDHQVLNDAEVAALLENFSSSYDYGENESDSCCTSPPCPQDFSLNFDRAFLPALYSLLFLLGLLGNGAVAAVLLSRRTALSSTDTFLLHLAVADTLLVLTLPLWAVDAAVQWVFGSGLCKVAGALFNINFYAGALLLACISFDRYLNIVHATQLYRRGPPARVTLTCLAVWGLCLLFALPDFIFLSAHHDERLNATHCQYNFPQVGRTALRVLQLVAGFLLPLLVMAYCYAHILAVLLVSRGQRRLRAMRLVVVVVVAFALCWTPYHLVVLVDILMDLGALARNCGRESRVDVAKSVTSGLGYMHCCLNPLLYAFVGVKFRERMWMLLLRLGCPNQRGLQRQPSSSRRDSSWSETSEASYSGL
Briefly: Calcium flux by flow cytometry in HEK-CXCR3-B cells. Type of test: cell-based. As for the experimental part:
(§4) Human Embryonic Kidney (HEK-293) cell lines, were regularly tested for contamination and were all mycoplasma-free. Cells were cultured in Dulbecco’s Modified Eagle’s medium (DMEM, Thermo Fisher Scientific) supplemented with 10% Fetal Bovine Serum (FBS), 5% antibiotics (Penicillin and […]) and 5% L-glutamine. All cells were grown at 37 °C, 5% CO2 and split at 70–90% of confluence with 0.25% Trypsin. Cell transfection was performed using Effecten kit (Qiagen) according to the manufacter’s instruction. HEK-CTRL (HEK-293 stably transfected with empty pEGFPN2 vectors) HEK-CXCR3-A cells and HEK-CXCR3-B (HEK-293 stably transfected with pEGFPN2 + CXCR3-A or pEGFPN2 + CXCR3-B vectors, respectivly) were grown in the presence of Zeocin (200 µg/ml). For inhibition experiments, cells were pretreated 1 h with the CXCR3 antagonist SCH546738 at dose-dependant concentration. SCH546738 is a small molecular lipophilic molecule, with the chemical formula: C23H31Cl2N7O. […] For this reason a concentration range from 0.5 to 2.2 nM has been used.
(§5) Intracellular calcium concentration was measured using Calcium Assay Kit (BD 640176) according to the manufacter’s procedure on an AccuriC6 flow cytometer equipped with BD AccuriC6 software (BD, San Jose, CA). Cells were placed in suspension and 1X Dye loading solution was added for 20 min at 37 °C. Calcium concentration was then recorded for 5 min on the AccuriC6 flow cytometer. CXCR3 agonist stimulation was performed after 2 min of recording and intracellular calcium increase was visualized. Calcium concentration after stimulation was normalized by calcium concentration before stimulation. Cells without 1X dye loading solution were used as a negative control in order to quantify the background level.
For orientation: Calcium flux is commonly read through the fluorescence of an indicator in the cells.

Test [4] concerns HEK-CTRL cell fragments. Briefly: Plasmon waveguide resonance (PWR) on HEK-CTRL cell fragments (empty GFP vector control). In kind it is binding, human.
Excerpt: as §2
as §3, with “found. The protocol for adhesion of cell fragments on silica (glass slides or PWR sensor) was adapted from reported work from Vogel and collaborators.” for “found.”

In test [5] the target is T2, CXCR3-B. Kind of test: Plasmon waveguide resonance (PWR) on HEK-CXCR3-B cell membrane fragments. Type of test: binding. Particulars: for Kd: HEK-CXCR3-B cell fragments, incremental ligand addition, hyperbolic fit.
Excerpt: as §1, §2, §3

The target in test [6] is T1, CXCR3-A. Briefly: Calcium flux by flow cytometry in HEK-CXCR3-A cells. In kind it is cell-based. As for the experimental part:
as §4, §5

As a reminder, the IC50 is the concentration at which inhibition is half-maximal. Regarding `NC(N)=NCCC[C@H](NC(=O)[C@@H]1Cc2ccccc2CN1C(=O)CCC(=O)c1ccccc1)C(=O)NCC1CCCCC1` [PS372424], the “Shift in resonance minimum position, P-pol” value is on record as 16 +/- 12 mdeg in test [1] (HEK-CXCR3-A, p-polarization, incremental addition to saturation); 0 +/- 1 mdeg in test [4] (HEK-CTRL, p-polarization); -5 +/- 1 mdeg in test [5] (HEK-CXCR3-B, p-polarization, incremental addition to saturation). For the same compound, the “Shift in resonance minimum position, S-pol” value in test [1] (HEK-CXCR3-A, s-polarization, incremental addition to saturation) was 4 +/- 1 mdeg; in test [4] (HEK-CTRL, s-polarization) it was 0 +/- 1 mdeg; in test [5] (HEK-CXCR3-B, s-polarization, incremental addition to saturation), -4 +/- 1 mdeg. Further, the values for the Kd in test [1] (PWR) and in test [5] (PWR) were 40 nM and 450 nM, respectively. Also, in test [1] (PWR), the “Difference in KD between CXCR3-A and CXCR3-B (higher affinity for CXCR3-A)” value is 10 fold. For the same compound, the half-inhibitory concentration (IC50) in test [2] (isoforms not distinguished, read-out: IC50 reported for binding to CXCR3) was 42 nM. In addition, the “Intracellular calcium flux after agonist stimulation” value in test [3] (HEK-CXCR3-B cells) and in test [6] (HEK-CXCR3-A cells) was “increase intracellular calcium flux” throughout. The KD result in test [4] (PWR, HEK-CTRL cell fragments) is reported as “No binding”.

`CC[C@H]1CN(c2nc(N)c(C(N)=O)nc2Cl)CCN1C1CCN(Cc2ccc(Cl)cc2)CC1` [SCH546738]: the Kd in test [1] (PWR) was 0.5 nM; in test [2] (other reports and methods, read-out: Affinity to CXCR3 reported), 0.8 to 2.2 nM and 0.4 to 2.2 nM; in test [5] (PWR) it was 1.5 nM. Further, the “Agonist binding after SCH546738 at 1 nM” value in test [1] (PWR, HEK-CXCR3-A, SCH546738 1 nM) is reported as “totally abrogated”; in test [5] (PWR, HEK-CXCR3-B, SCH546738 1 nM), “binding was still observed”. In addition, the “Agonist binding after SCH546738 at saturating concentration” value in test [1] (PWR, HEK-CXCR3-A, SCH546738 2.2 nM, 1 h) was “completely abolished”; in test [5] (PWR, HEK-CXCR3-B, SCH546738 2.2 nM, 1 h), “completely abolished”. In addition, the “Difference in KD between CXCR3-A and CXCR3-B (higher affinity for CXCR3-A)” value in test [1] (PWR) was 3 fold. For the same compound, the “Receptor activation by agonist (calcium flux) after SCH546738 pretreatment” value in test [3] (HEK-CXCR3-B cells pretreated with SCH546738) and in test [6] (HEK-CXCR3-A cells pretreated with SCH546738) was “no longer activated” in each case. The “Inhibition of CXCR3-B activation (calcium flux)” value in test [3] (at 1 nM) turned out to be 25%. Moreover, the “PWR response of control cell fragments (non-specific binding)” value in test [4] (HEK-CTRL cell fragments) is “did not respond”. The “Inhibition of CXCR3-A activation (calcium flux)” value in test [6] (at 1 nM) is “more than 70%”.
